# Reference: PubChem BioAssay AID218 (DTP/NCI, 2004)
# Where “and” joins values, the source holds several entries; their conditions need not be identical. Identical values can stand only once.
# System: C57BL/6 mice, Adenocarcinoma 755 sc, tumor weight T/C
# Assay: NCI In Vivo Anticancer Drug Screen. Data for tumor model Adenocarcinoma 755 (subcutaneous) in C57BL/6 mice
# Conditions: endpoint: mean tumor weight, higher = larger tumour
# Procedure: The antitumor activity of compounds was measured in mice bearing transplantable tumors. Survival or tumor size were measured and the results are expressed as the measurement made in the treated group (T) divided by the measurement made in the vehicle treated control group (C). The tumor model used in this assay is Adenocarcinoma 755 (subcutaneous) in C57BL/6 mice
# [1] = dose: 3.13 mg/kg/injection, schedule: Q01DX011 (ip), vehicle: saline
# [2] = dose: 6.25 mg/kg/injection, schedule: Q01DX011 (ip), vehicle: saline
# [3] = dose: 25.0 mg/kg/injection, schedule: Q01DX011 (ip), vehicle: saline
# [4] = dose: 50.0 mg/kg/injection, schedule: Q01DX011 (ip), vehicle: saline
# [5] = dose: 20.0 mg/kg/injection, schedule: Q01DX011 (ip), vehicle: saline
# [6] = dose: 40.0 mg/kg/injection, schedule: Q01DX011 (ip), vehicle: saline
# [7] = dose: 0.25 mg/kg/injection, schedule: Q01DX011 (ip), vehicle: carboxymethylcellulose (CMC)
# [8] = dose: 0.5 mg/kg/injection, schedule: Q01DX011 (ip), vehicle: carboxymethylcellulose (CMC)
# [9] = dose: 1.0 mg/kg/injection, schedule: Q01DX011 (ip), vehicle: carboxymethylcellulose (CMC)
# [10] = dose: 100.0 mg/kg/injection, schedule: Q01DX011 (ip), vehicle: saline
# [11] = dose: 12.5 mg/kg/injection, schedule: Q01DX011 (ip), vehicle: saline
smiles,measurement,setting,value
CCc1c(CC(=O)O)c2cc(C)ccc2n1Cc1ccc(Cl)cc1,T/C,"dose: 1.56 mg/kg/injection, schedule: Q01DX011 (ip), vehicle: saline",79 % of control
same,T/C,[1],66 % of control
same,T/C,[2],109 % of control
same,T/C,[3],10 % of control
same,T/C,[4],22 % of control
COC1=C(N)C(=O)c2nc(-c3nc(C(=O)O)c(C)c(-c4ccc(OC)c(OC)c4O)c3N)ccc2C1=O,T/C,"dose: 0.06 mg/kg/injection, schedule: Q01DX011 (ip), vehicle: saline",84 % of control
same,T/C,"dose: 0.09 mg/kg/injection, schedule: Q01DX011 (ip), vehicle: saline",77 % of control
same,T/C,"dose: 0.13 mg/kg/injection, schedule: Q01DX011 (ip), vehicle: saline",64 % of control
same,T/C,"dose: 0.2 mg/kg/injection, schedule: Q01DX011 (ip), vehicle: saline",38 % of control
C[N+](C)(C)c1ncnc2nc[nH]c12,T/C,"dose: 1.25 mg/kg/injection, schedule: Q#A X022 (ip), vehicle: saline",95 % of control
same,T/C,"dose: 2.5 mg/kg/injection, schedule: Q01DX011 (ip), vehicle: saline",109 % of control
same,T/C,"dose: 2.5 mg/kg/injection, schedule: Q01DX011 (sc), vehicle: saline",56 % of control
same,T/C,"dose: 2.5 mg/kg/injection, schedule: Q#A X022 (ip), vehicle: saline",93 % of control
same,T/C,"dose: 5.0 mg/kg/injection, schedule: Q01DX011 (ip), vehicle: saline",52 % of control
same,T/C,"dose: 5.0 mg/kg/injection, schedule: Q01DX011 (sc), vehicle: saline",34 % of control
same,T/C,"dose: 5.0 mg/kg/injection, schedule: Q#A X022 (ip), vehicle: saline",40 % of control
same,T/C,"dose: 7.5 mg/kg/injection, schedule: Q03DX004 (ip), vehicle: saline",77 % of control
same,T/C,"dose: 10.0 mg/kg/injection, schedule: Q01DX006 (iv), vehicle: saline",50 % of control
same,T/C,"dose: 10.0 mg/kg/injection, schedule: Q01DX011 (ip), vehicle: saline",12 % of control and 18 % of control
same,T/C,"dose: 10.0 mg/kg/injection, schedule: Q01DX011 (oral), vehicle: saline",58 % of control
same,T/C,"dose: 10.0 mg/kg/injection, schedule: Q01DX011 (sc), vehicle: saline",34 % of control
same,T/C,"dose: 10.0 mg/kg/injection, schedule: Q02DX006 (im), vehicle: saline",54 % of control
same,T/C,"dose: 10.0 mg/kg/injection, schedule: Q#A X022 (ip), vehicle: saline",13 % of control and 18 % of control
same,T/C,"dose: 15.0 mg/kg/injection, schedule: Q03DX004 (ip), vehicle: saline",76 % of control
same,T/C,[5],6 % of control and 11 % of control and 18 % of control
same,T/C,"dose: 20.0 mg/kg/injection, schedule: Q01DX011 (oral), vehicle: saline",43 % of control
same,T/C,"dose: 20.0 mg/kg/injection, schedule: Q01DX011 (sc), vehicle: saline",8 % of control and 16 % of control
same,T/C,"dose: 20.0 mg/kg/injection, schedule: Q02DX006 (im), vehicle: saline",50 % of control
same,T/C,"dose: 20.0 mg/kg/injection, schedule: Q#A X022 (ip), vehicle: saline",8 % of control
same,T/C,"dose: 30.0 mg/kg/injection, schedule: Q03DX004 (ip), vehicle: saline",32 % of control
same,T/C,"dose: 40.0 mg/kg/injection, schedule: Q01DX006 (iv), vehicle: saline",42 % of control
same,T/C,[6],6 % of control and 9 % of control
same,T/C,"dose: 40.0 mg/kg/injection, schedule: Q01DX011 (oral), vehicle: saline",12 % of control and 18 % of control
same,T/C,"dose: 40.0 mg/kg/injection, schedule: Q01DX011 (sc), vehicle: saline",7 % of control
same,T/C,"dose: 40.0 mg/kg/injection, schedule: Q02DX006 (im), vehicle: saline",39 % of control
same,T/C,"dose: 60.0 mg/kg/injection, schedule: Q03DX004 (ip), vehicle: saline",16 % of control and 18 % of control
same,T/C,"dose: 75.0 mg/kg/injection, schedule: Q01DX001 (ip), vehicle: saline",76 % of control and 85 % of control
same,T/C,"dose: 80.0 mg/kg/injection, schedule: Q01DX006 (iv), vehicle: saline",15 % of control
same,T/C,"dose: 80.0 mg/kg/injection, schedule: Q01DX011 (ip), vehicle: saline",5 % of control
same,T/C,"dose: 80.0 mg/kg/injection, schedule: Q01DX011 (oral), vehicle: saline",5 % of control and 10 % of control and 17 % of control
same,T/C,"dose: 80.0 mg/kg/injection, schedule: Q01DX011 (sc), vehicle: saline",5 % of control
same,T/C,"dose: 80.0 mg/kg/injection, schedule: Q02DX006 (im), vehicle: saline",20 % of control
same,T/C,"dose: 120.0 mg/kg/injection, schedule: Q03DX004 (ip), vehicle: saline",10 % of control
same,T/C,"dose: 150.0 mg/kg/injection, schedule: Q01DX001 (ip), vehicle: saline",47 % of control and 48 % of control
same,T/C,"dose: 160.0 mg/kg/injection, schedule: Q01DX011 (oral), vehicle: saline",8 % of control
same,T/C,"dose: 160.0 mg/kg/injection, schedule: Q01DX011 (sc), vehicle: saline",4 % of control
same,T/C,"dose: 300.0 mg/kg/injection, schedule: Q01DX001 (ip), vehicle: saline",33 % of control and 40 % of control
same,T/C,"dose: 320.0 mg/kg/injection, schedule: Q01DX011 (oral), vehicle: saline",5 % of control
Nc1nc(=S)c2ncn(C3OC(COC(=O)c4ccccc4)C(OC(=O)c4ccccc4)C3OC(=O)c3ccccc3)c2[nH]1 (stereo unspecified),T/C,"dose: 3.1 mg/kg/injection, schedule: Q01DX011 (ip), vehicle: methylcellulose (MC)",90 % of control
same,T/C,"dose: 6.25 mg/kg/injection, schedule: Q01DX011 (ip), vehicle: methylcellulose (MC)",62 % of control
same,T/C,"dose: 12.5 mg/kg/injection, schedule: Q01DX011 (ip), vehicle: methylcellulose (MC)",77 % of control
same,T/C,"dose: 25.0 mg/kg/injection, schedule: Q01DX011 (ip), vehicle: methylcellulose (MC)",16 % of control
CS(=O)(=O)OCCCCCCCCCOS(C)(=O)=O,T/C,[7],64 % of control
same,T/C,[8],93 % of control
same,T/C,[9],162 % of control
same,T/C,"dose: 2.0 mg/kg/injection, schedule: Q01DX011 (ip), vehicle: carboxymethylcellulose (CMC)",95 % of control
same,T/C,"dose: 4.0 mg/kg/injection, schedule: Q01DX011 (ip), vehicle: carboxymethylcellulose (CMC)",84 % of control
CCCCCCCCCCCNc1ncnc2[nH]ncc12,T/C,[4],46 % of control
same,T/C,[10],41 % of control
Nc1[nH]c(=O)nc2c1ncn2C1OC(CO)C(O)C1O (stereo unspecified),T/C,[5],100 % of control
same,T/C,"dose: 30.0 mg/kg/injection, schedule: Q01DX011 (ip), vehicle: saline",42 % of control
same,T/C,[6],58 % of control
O=c1[nH]cc(S)c(=O)[nH]1,T/C,"dose: 100.0 mg/kg/injection, schedule: Q02DX006 (ip), vehicle: other",86 % of control
same,T/C,"dose: 125.0 mg/kg/injection, schedule: Q02DX006 (ip), vehicle: other",76 % of control
Clc1ncnc2c1ncn2Cc1ccco1,T/C,[11],63 % of control
same,T/C,[3],62 % of control
same,T/C,[4],86 % of control
same,T/C,[10],51 % of control
Nc1nc(=S)c2[nH]cnc2[nH]1,T/C,"dose: 0.06 mg/kg/injection, schedule: Q01DX011 (ip), vehicle: carboxymethylcellulose (CMC)",81 % of control
same,T/C,"dose: 0.13 mg/kg/injection, schedule: Q01DX011 (ip), vehicle: carboxymethylcellulose (CMC)",111 % of control
same,T/C,[7],18 % of control
same,T/C,[8],7 % of control and 8 % of control
same,T/C,"dose: 0.5 mg/kg/injection, schedule: Q01DX011 (ip), vehicle: saline",3 % of control
same,T/C,[9],7 % of control
Nc1[nH]c(=S)nc2nc[nH]c12,T/C,"dose: 5.0 mg/kg/injection, schedule: Q02DX006 (ip), vehicle: saline",46 % of control
same,T/C,"dose: 6.0 mg/kg/injection, schedule: Q02DX006 (ip), vehicle: saline",33 % of control
same,T/C,"dose: 8.0 mg/kg/injection, schedule: Q02DX006 (ip), vehicle: saline",25 % of control
Cc1ncc(CO)c(C)c1O,T/C,[1],88 % of control
same,T/C,[2],107 % of control
same,T/C,[11],98 % of control
same,T/C,[3],106 % of control
same,T/C,[4],74 % of control and 88 % of control
same,T/C,[10],84 % of control and 107 % of control
same,T/C,"dose: 125.0 mg/kg/injection, schedule: Q01DX011 (ip), vehicle: saline",47 % of control
same,T/C,"dose: 150.0 mg/kg/injection, schedule: Q01DX011 (ip), vehicle: saline",56 % of control and 66 % of control
same,T/C,"dose: 200.0 mg/kg/injection, schedule: Q01DX011 (ip), vehicle: saline",119 % of control
Cn1ncc2c(N)ncnc21,T/C,"dose: 20.0 mg/kg/injection, schedule: Q02DX006 (ip), vehicle: other",47 % of control
same,T/C,"dose: 40.0 mg/kg/injection, schedule: Q02DX006 (ip), vehicle: other",28 % of control
Cn1cc(NC(=O)c2cc(NC(=O)CN=C(N)N)cn2C)cc1C(=O)NCCC(=N)N,T/C,"dose: 20.0 mg/kg/injection, schedule: Q02DX006 (ip), vehicle: water",95 % of control
same,T/C,"dose: 25.0 mg/kg/injection, schedule: Q02DX006 (ip), vehicle: water",69 % of control
same,T/C,"dose: 30.0 mg/kg/injection, schedule: Q02DX006 (ip), vehicle: water",31 % of control
